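Results reflect a 48-hour exposure of cells in 96-well plates to compound at five concentrations. Here, GI50 denotes the concentration required for 50% inhibition of growth. TGI: concentration producing complete growth inhibition.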
Legend:
Experiment in all cases: DTP human tumour cell line panel, 48 h
786-0 renal = test system: 786-0 renal
HCC-2998 colon = test system: HCC-2998 colon
HOP-62 NSCLC = test system: HOP-62 NSCLC
HT29 colon = test system: HT29 colon
NCI-H226 lung = test system: NCI-H226 lung
SK-OV-3 ovarian = test system: SK-OV-3 ovarian
SN12C renal = test system: SN12C renal
MCF7 breast = test system: MCF7 breast
PC-3 prostate = test system: PC-3 prostate
HS 578T breast = test system: HS 578T breast

Row | SMILES | TGI (786-0 renal) [µM] | TGI (HCC-2998 colon) [µM] | TGI (HOP-62 NSCLC) [µM] | TGI (HT29 colon) [µM] | TGI (NCI-H226 lung) [µM] | TGI (SK-OV-3 ovarian) [µM] | TGI (SN12C renal) [µM] | GI50 (786-0 renal) [µM] | GI50 (HOP-62 NSCLC) [µM] | GI50 (HT29 colon) [µM] | GI50 (MCF7 breast) [µM] | TGI (MCF7 breast) [µM] | GI50 (PC-3 prostate) [µM] | TGI (PC-3 prostate) [µM] | GI50 (SK-OV-3 ovarian) [µM] | GI50 (HCC-2998 colon) [µM] | GI50 (HS 578T breast) [µM] | TGI (HS 578T breast) [µM] | GI50 (NCI-H226 lung) [µM] | GI50 (SN12C renal) [µM]
1 | CC(C)N(C(=O)C12C3C4C5(C#N)C3C1(C#N)C5C42C#N)C(C)C (centres undefined) | > 100 | > 100 | > 100 | > 100 | > 100 | > 100 | > 100 | – | – | – | – | – | – | – | – | – | – | – | – | –
2 | O=C(C(=O)c1cc2ccccc2[nH]1)c1cc2ccccc2[nH]1 | > 347 | > 347 | > 347 | > 347 | > 347 | > 347 | > 347 | – | – | – | – | – | – | – | – | – | – | – | – | –
3 | C=C(CCCCC)CN1CCCC1C(C)=O (centres undefined) | > 100 | > 100 | 64.1 | > 100 | 68.9 | > 100 | 98.6 | – | – | – | – | – | – | – | – | – | – | – | – | –
4 | CCOC(=O)c1cc(C(=O)c2ccc(OC)cc2)n2ccc(/C=C/c3cc[n+](CC(=O)c4ccc(OC)cc4)cc3)cc12 | 3.94 | – | 36.8 | 4.55 | – | > 100 | – | 1.98 | 3.4 | 1.81 | 1.51 | 3.56 | 2.03 | 5.96 | > 100 | – | – | – | – | –
5 | C=CN(C(=O)N1CCN(c2cc3c(cc2F)c(=O)c(C(=O)O)cn3C2CC2)CC1)c1nc(-c2ccc(OC)cc2)cs1 | 23.1 | > 100 | 65.4 | > 100 | > 100 | – | > 100 | 3.37 | 3.37 | 3.42 | 3.36 | > 100 | 3.65 | > 100 | – | 5.12 | 3.22 | 14.5 | 2.9 | 3.14
6 | C=C(c1ccc(OC)c(/C=C/C(=O)c2ccc3c(c2)OCO3)c1)c1cc(OC)c(OC)c(OC)c1 | 5.61 | – | > 100 | 10.4 | – | > 100 | > 100 | 2.16 | 4.16 | 2.98 | 0.913 | > 100 | 2.91 | > 100 | 5.07 | – | 4.65 | > 100 | – | 3.84
7 | O=C(O)CSc1n[nH]c(=O)[nH]c1=O | > 100 | – | > 100 | > 100 | > 100 | > 100 | > 100 | – | – | – | – | > 100 | – | > 100 | – | – | – | > 100 | – | –
8 | O=C1[C@H]2ON(c3ccccc3)C(c3ccc([N+](=O)[O-])cc3)[C@H]2C(=O)N1c1ccc(Cc2ccc(N3C(=O)[C@@H]4ON(c5ccccc5)C(c5ccc([N+](=O)[O-])cc5)[C@@H]4C3=O)cc2)cc1 (some centres undefined) | > 100 | > 100 | > 100 | > 100 | > 100 | > 100 | > 100 | – | – | – | – | – | – | – | – | – | – | – | – | –
9 | Cc1cnc2ccc(C)c([N+](=O)[O-])c2c1NCCCN(C)C | > 100 | > 100 | > 100 | > 100 | > 100 | > 100 | > 100 | – | – | – | – | – | – | – | – | – | – | – | – | –
10 | NNC(=O)C(=O)N/N=C(\CCCC(=O)Nc1ccc(Cl)cc1)CC(=O)c1ccc(F)cc1 | > 100 | > 100 | > 100 | > 100 | > 100 | – | > 100 | – | – | – | – | – | – | – | – | – | – | – | – | –
11 | C/C(=N\N=C(N)N)C(CN1CCCCC1)C(c1ccccc1)c1c(O)c2ccccc2oc1=O (centres undefined) | > 100 | > 100 | > 100 | > 100 | > 100 | > 100 | > 100 | – | – | – | – | – | – | – | – | – | – | – | – | –
12 | COc1ccc(Cc2c3cc(O)c(=O)cc-3ccn2C)cc1 | > 66.8 | > 100 | 82.4 | > 100 | 83.3 | > 100 | > 100 | – | – | – | – | – | – | – | – | – | – | – | – | –
13 | OC(CNc1ccnc2cc(Cl)ccc12)CNc1ccnc2cc(Cl)ccc12 | 3.39 | – | 14.7 | – | 9.3 | 3.89 | 3.7 | 1.81 | 3.17 | – | – | – | 1.6 | 3.1 | 1.92 | – | 1.97 | 4.16 | 2.98 | 1.89
14 | CSc1ccc2c(cc1=O)[C@@H](NC(=O)c1cccc([N+](=O)[O-])c1)CCc1cc(O)c(O)c(O)c1-2 | > 100 | > 100 | > 100 | > 100 | 57.9 | > 100 | 88.9 | – | – | – | – | – | – | – | – | – | – | – | – | –
15 | CCOC(OC(C)=O)[C@@H]1C=C[C@H](C)N(c2ccc([N+](=O)[O-])cc2)O1 (some centres undefined) | 7.23 | 26.3 | 31.6 | 11.4 | 14 | 35.3 | 22.3 | – | – | – | – | – | – | – | – | – | – | – | – | –
16 | C=CCNC(=O)NCCCCC(NC(C)=O)C(=O)NCc1ccccc1 (centres undefined) | > 100 | > 100 | > 100 | > 100 | > 100 | > 100 | > 100 | – | – | – | – | – | – | – | – | – | – | – | – | –
17 | O=C(O)CCNCC(=O)O | > 100 | – | > 100 | > 100 | > 100 | > 100 | > 100 | – | – | – | – | > 100 | – | > 100 | – | – | – | > 100 | – | –
18 | C=C(C)[C@H]1CC[C@@]2(C)C(C1)[C@H](C)CC[C@@H]2O (some centres undefined) | > 100 | > 100 | > 100 | > 100 | > 100 | > 100 | > 100 | – | – | – | – | – | – | – | – | – | – | – | – | –
19 | CC1=N/C(=C/c2ccc3c(c2)OCO3)C(=O)O1 | > 100 | – | – | > 100 | – | > 100 | > 100 | – | – | – | – | – | – | – | – | – | – | – | – | –
20 | COC(COC(N)=O)C1=C(N2CC2)C(=O)C(C)=C(N2CC2)C1=O (centres undefined) | 0.186 | 0.311 | 0.227 | 0.521 | 0.299 | 1.8 | 1.28 | – | – | – | – | 1 | – | 1.51 | – | – | – | – | – | –
21 | Clc1c(Cl)[n+](Cc2ccc3ccccc3c2)cn1Cc1ccc2ccccc2c1 | 3.11 | 3.05 | 2.61 | 2.01 | – | 3.75 | 2.99 | 1.65 | 1.26 | 0.57 | 1.32 | 2.88 | 1.46 | 2.87 | 1.39 | 1.53 | 1.71 | 4.41 | – | 1.53
22 | Cc1ccc(C)c(N2C(=O)C(=O)C(c3nc4ccccc4s3)/C(=N/N)C2=O)c1 (centres undefined) | > 100 | > 100 | > 100 | > 100 | > 100 | > 100 | > 100 | – | – | – | – | – | – | – | – | – | – | – | – | –
